Counter-ions that a name gives are not always drawn.
Legend:
[1] = target: T1, thromboxane synthetase enzyme (Rattus norvegicus, UniProt P49430); test: Inhibition of thromboxane formation (TXB2 RIA) in washed platelets of spontaneously hypertensive rats; type: cell-based, Okamoto-Aoki spontaneously hypertensive rats (SHR); details: SHR platelets, 10 minutes at 37° C.; drug concentration not given
T1 construct: The platelets were isolated by centrifuging the PRP for 10 minutes; endogenous in cells; host or cells: washed platelets from arterial blood of Okamoto-Aoki spontaneously hypertensive rats (SHR; animals from Taconic Farms, Germantown, N.Y.)
T1 sequence (P49430 1-533): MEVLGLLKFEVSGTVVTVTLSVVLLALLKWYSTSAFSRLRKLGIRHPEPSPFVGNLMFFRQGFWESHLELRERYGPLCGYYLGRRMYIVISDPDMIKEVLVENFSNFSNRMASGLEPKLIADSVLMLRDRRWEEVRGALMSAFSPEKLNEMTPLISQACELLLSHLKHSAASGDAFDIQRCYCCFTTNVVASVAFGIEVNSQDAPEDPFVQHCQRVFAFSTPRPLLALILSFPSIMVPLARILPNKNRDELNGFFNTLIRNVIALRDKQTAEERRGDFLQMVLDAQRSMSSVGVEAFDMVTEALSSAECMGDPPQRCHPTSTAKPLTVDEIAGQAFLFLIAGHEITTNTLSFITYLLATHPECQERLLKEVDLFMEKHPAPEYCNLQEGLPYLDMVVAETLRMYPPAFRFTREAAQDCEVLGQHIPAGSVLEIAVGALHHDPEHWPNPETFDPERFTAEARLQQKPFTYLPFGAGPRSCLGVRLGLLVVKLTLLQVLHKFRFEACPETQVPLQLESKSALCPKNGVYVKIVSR
Procedure: Under urethan anesthesia, […] of arterial blood was collected in one ml. of 3.2% sodium citrate in a polystyrene tube from Okamoto-Aoki spontaneously hypertensive rats (SHR) (Taconic Farms, Germantown, N.Y.) between 19 and 24 weeks in age. The blood was diluted with 3 ml. of cold saline and centrifuged at room temperature for 15 minutes at 460×g. The platelet rich plasma (PRP) was separated. The platelets were isolated by centrifuging the PRP for 10 minutes at 1060 xg and were washed in 4 ml. of cold oxygenated Krebs phosphate buffer, pH 7.4. The chilled platelets recovered from centrifuging at 800×g for 10 minutes were resuspended in oxygenated Krebs phosphate buffer and diluted to contain 4.5-6.0×10^4 platelets/μl. The inhibition of thromboxane (TX) formation was studied by determining the concentration of thromboxane B2 (TXB2), the stable hydrolysis product of TXA2. Assay samples, prepared on ice, contained 200 μl platelet suspension, 50 μl saline, and 50 μl vehicle or drug under study (OKY1581, UK-37248-01, 1-benzylimidazole, or indomethacin). The samples were incubated for 10 minutes at 37° C. in a metabolic shaker. The reaction was terminated by immersing the tubes in an ice bath and adding 50 μl of 0.5M citric acid. The samples were centrifuged for 10 minutes in a refrigerated centrifuge and the supernatants thus obtained were decanted and stored at -20° C. The TXB2 content for each sample was determined by a direct radioimmunoassay (RIA) utilizing a TXB2 specific RIA kit purchased from New England Nuclear, Boston, MA. and expressed as pg TXB2 formed minute^-1 sample^-1, from which the percent inhibition of TXB2 formation was calculated.

Sprague-Dawley rats = test: In Vivo Test for the Prevention of Death Due to Infarction; details: 3 rats infarcted, 10 mg/kg intraperitoneal 1 h before 10 mg/kg s.c. (-)isoproternol hydrochloride, observed 2.5 hours; for responders at 10 mg/kg: Rattus norvegicus, ip, read-out: % Survival
Procedure: Beitz, Toxicology and Applied Pharmacology 62, 152-157 (1982) was performed as follows:
In Vivo Test for the Prevention of Death Due to Infarction
Sprague-Dawley rats were pretreated with an intraperitoneal injection of the test compound at 10 mg/kg of body weight. One hour later, a myocardial infarction was induced by injection 10 mg/kg of (-)isoproternol hydrochloride subcutaneously. Each compound was tested in at least three rats. […] The compound is considered "in vivo active" in those groups in which all animals survive the myocardial infarction.

| SMILES | % Inhibition (of TXB2 formation) [1] | No. of Rats Surviving (Sprague-Dawley rats) | responders at 10 mg/kg (Sprague-Dawley rats) |
| --- | --- | --- | --- |
| Cl.Cl.Nc1c(C(=O)NCCCc2cccnc2)cccc1C(F)(F)F [Example 11, 2-Amino-N-[3-(3-pyridinyl)propyl]-3-(trifluoromethyl)benzamide dihydrochloride] | 98% |  |  |
| Nc1ccccc1C(=O)NCCc1cccnc1 [Example 1, 2-Amino-N-[2-(3-pyridinyl)ethyl]benzamide] |  | 3 | 100% |
| Cl.Cl.Nc1cc(Cl)ccc1C(=O)NCCCCc1cccnc1 [Example 6, 2-Amino-4-Chloro-N-[4-(3-pyridinyl)butyl]benzamide dihydrochloride] |  | 3 | 100% |
| Nc1cc(Cl)ccc1C(=O)NCCCc1cccnc1 [2-Amino-4-chloro-N--[3-(3-pyridinyl)propyl]benzamide, dihydrochloride] |  | 3 | 100% |
| Nc1ccc(Cl)cc1C(=O)NCCCc1cccnc1 [2-Amino-5-chloro-N--[3-(3-pyridinyl)propyl]benzamide dihydrochloride] | 98% |  |  |
| Cl.Cl.Nc1ccc(Cl)cc1C(=O)NCCCCc1cccnc1 [Example 3, 2-Amino-5-chloro-N-[4-(3-pyridinyl)butyl]benzamide dihydrochloride] |  | 3 | 100% |
| Cc1ccc(N)c(C(=O)NCCCCc2cccnc2)c1.Cl.Cl [Example 7, 2-Amino-5-methyl-N-[4-(3-pyridinyl)butyl]benzamide dihydrochloride] | 100% | 3 | 100% |
| Nc1cc(Cl)ccc1C(=O)NCCCc1cccnc1 [Example 9, 2-Amino-4-chloro-N-[3-(3-pyridinyl)propyl]benzamide] | 95% |  |  |
| O=C(O)c1ccccc1C(=O)NCCCCc1cccnc1 [Example 13, 2-[[[4-(3-Pyridinyl]butyl]amino]carbonyl]benzoic acid] | 92% |  |  |
| CNc1ccc(Cl)cc1C(=O)NCCCCc1cccnc1.Cl.Cl [Example 4, 5-Chloro-2-(methylamino)-N-[4-(3-pyridinyl)butyl]benzamide dihydrochloride] | 99% |  |  |
| O=C(O)c1ccccc1C(=O)NCCc1cccnc1 [Example 12, 2-[[[2-(3-Pyridinyl)ethyl]amino]carbonyl]benzoic acid] |  | 3 | 100% |
| Cl.Cl.Nc1ccccc1C(=O)NCCCCc1cccnc1 [Example 2, 2-Amino-N-[4-(3-pyridinyl)butyl]benzamide dihydrochloride] | 97% | 3 | 100% |
| O=C(O)c1ccc(Cl)cc1C(=O)NCCCCc1cccnc1 [Example 14, 4-Chloro-2-[[[4-(3-pyridinyl)butyl]amino]carbonyl]benzoic acid] | 100% | 3 | 100% |
